The nature of series [1]: Absorption spectra (maximum absorption wavelength). The format is physicochemical. The protocol: All chemicals and solvents were purchased from commercial suppliers and used without further purification unless other-wise specified. ^1H NMR (500 MHz) and ^13C NMR ([…]) spectra were recorded in deuterated solvents on a Bruker ADVANCE 500 NMR Spectrometer. J values are expressed in Hz and quoted chemical shifts are in ppm downfield from tetramethylsilane (TMS) reference using the residual protonated solvents as an internal standard. The signals have been designated as follows: s (singlet), d (doublet), t (triplet), m (multiplets). All the ^13C NMR are proton decoupled. High resolution mass spectra (HRMS) were determined on Broker-micrOTOF-Q II Mass Spectrometer. Concentrations are given in μM. Absorption spectra were acquired using a Cary 5000 UV-Vis-NIR spectrophotometer in a 1 cm quartz cell.
The IR spectrums of the closed (Compound 3) and opened (XanthCR-880) forms of the dye are very distinct. The IR spectrums were obtained in dichloromethane (DCM) and dimethyl sulfoxide (DMSO) (FIG. 2). The maximum absorption wavelength (λabs) of the closed form (Compound 3) is 372 nm. However, when the dye was trapped in the opened form as the ethyl ester (XanthCR-880), the λabs shifted to 880 nm in DCM and 890 nm in DMSO, both of which are at the edge of the NIR I region and trail into the NIR II region.

For a further series, the system named is porcine liver esterase. The series is described as follows: Stability in the presence of esterase (absorbance). The format is in vitro ADME. The settings on record: room temperature, 30 min. As for the experimental part:
(§1) FIGS. 3A-3B show absorption studies depicting the stability of XanthCR-880 (20 μM) to the treatment of glutathione (10 mM) (FIG. 3A) and esterase (5 units) (FIG. 3B).
(§2) The XanthCR-880 dye was evaluated for its compatibility as a PA contrast agent in chloroform (FIG. 3C) and PBS buffer and observed that the strongest intensity (XPA) was at 890 nm and 865 nm, respectively.

Series [2] can be described thus: Stability of the dye against glutathione (change in absorption at 880 nm). The settings on record: 17 μM dye, 40% DMSO/60% PBS, 10 mM reduced glutathione, after 30 min. The format is in vitro ADME. As for the experimental part:
as §1
The XanthCR-880 dye was also shown to have excellent stability. The stability of XanthCR-880 dye was tested against glutathione, which is a potential reducing agent in biological media. The XanthCR-880 dye (17 μM) was prepared in 40% DMSO/60% PBS solution with 10 mM reduced glutathione and evaluated the change in the maximum absorption at 880 nm. The 10 mM concentration of reduced glutathione was selected to reflect the highest reported levels found in the body (i.e., liver). There was no change observed in the absorbance of the dye after 30 min.

Series [3] is described as follows: Photobleaching under continuous irradiation. The format is physicochemical. The settings on record: continuous irradiation at λPA for 60 min; 20 μM in CHCl3. From the text:
Ideally PA contrast agents are photostable. When PA contrast agent are used in studies, they may be subjected to multiple imaging sessions, and as such are ideally resistant to photobleaching.

Series [4] is described as follows: Photoacoustic spectrum (PA contrast agent compatibility). The format is physicochemical. As for the experimental part:
Photoacoustic A imaging was performed on an iThera Medical MSOT inVision 128 tomographer.
as §2

Series [5] in a line: Fluorescence (fluorescent quantum yield attempt). The format is physicochemical. As to conditions: attempts to determine the fluorescent quantum yield. From the text:
Fluorescence spectra were acquired using a custom-built setup with discrete excitation wavelengths ranging from 226 nm to 1059 nm with a temperature range from 4.2 K to 300 K using a liquid He bath cryostat. Alternatively, a Horiba QuantaMaster 8075-21 spectrofluorometer with xenon lamp excitation and liquid nitrogen cooled indium gallium arsenide solid state detector could be used. […] excitation was chosen to coincide with a Xe emission peak.

SMILES strings stand for the structures.

Turning to `CCOC(=O)c1ccccc1C1=c2cc/c(=C3/C=CC(=[N+]4CCCCC4)S3)cc2Oc2cc(-c3ccc(N4CCCCC4)s3)ccc21.[Cl-]` [XanthCR-880, 1-{5-[(3E)-9-[2-(Ethoxycarbonyl)phenyl]-6-[5-(piperidin-1-yl)thiophen-2-yl]-3H-xanthen-3-ylidene]-2,5-dihydrothiophen-2-ylidene}-1λ5-piperidin-1-ylium chloride], the “maximum absorption wavelength (λabs)” value in series [1] (in DCM) was 880 nm; in series [1] (in DMSO), 890 nm. The molecule further yielded an absorption maximum in series [1] (solvent not stated) of 880 nm. In addition, in the series on porcine liver esterase, the “change in the absorbance” value is “no significant change”. Also, the “change in the absorbance of the dye (maximum absorption at 880 nm)” value in series [2] is on record as “no change”. Also, the “decrease of PA signal (photobleaching)” value in series [3] came out at 45%. In addition, the “wavelength of strongest photoacoustic intensity (λPA)” value in series [4] (in PBS buffer) is recorded as 865 nm; in series [4] (in chloroform (CHCl3), 20 μM), 890 nm. The fluorescence result in series [5] is given as “sufficient fluorescence for brightness imaging”.

As to `O=C1OC2(c3ccc(-c4ccc(N5CCCCC5)s4)cc3Oc3cc(-c4ccc(N5CCCCC5)s4)ccc32)c2ccccc21` [Compound 3], the “maximum absorption wavelength (λabs)” value in series [1] (closed form, spectra obtained in DCM and DMSO, solvent of this value not stated) was found to be 372 nm.

For the origin of these results see patent publication US20240124714A1, “NEAR INFRARED DYES FOR BIOLOGICAL IMAGING AND OPTOELECTRONIC DEVICES” (Mississippi State University, priority 2022, published 2024).
